Measured values as given in patent publication US20240374573A1, “IMIDAZOLE CONTAINING COMPOUNDS, DERIVATIVES THEREFORE, AND USES THEREOF” (AglaeaPharma Inc., priority 2023, published 2024).
Where a name gives a salt, the structure may show the parent alone.

Columns and labels:
[1] = in vitro; conditions: male, C57BL/6J, mouse, plasma, pH 7.4
Procedure: (§1) The experiment utilized a HT-Dialysis plate (HTD 96 b) and a dialysis membrane with a molecular weight cutoff of 12-14 kDa. The plasma was derived from male C57BL/6J mice, treated with EDTA-K2 as an anticoagulant. The experimental procedure commenced with plasma thawing under cold tap water, followed by centrifugation at 3220×g for 5 minutes to eliminate clots, and pH adjustment to 7.4+0.1.
(§2) Dialysis membranes were initially hydrated in ultra-pure water for about one hour and then treated in a 20:80 ethanol-water mixture for 20 minutes. These prepared membranes could be used immediately or stored at 2-8° C. for up to a month. Membranes were rinsed in ultra-pure water before use.
(§3) Test and control compounds were prepared at a 400 µM concentration by diluting stock solutions with DMSO. Working solutions were further diluted to create 2 μM loading matrix solutions, which were thoroughly mixed. In the assay, 50 μL aliquots of these solutions were dispensed in triplicate into a Sample Collection Plate, balanced with blank PBS to a final volume of 100 µL per well. A stop solution containing acetonitrile, tolbutamide, and labetalol was added, and samples were mixed and cooled at 2 to 8° C.
(§4) During the dialysis, 100 μL aliquots from the loading matrix were placed in the dialysis well's donor side, matched with an equal volume of PBS on the receiver side, and incubated at 37° C. for 4 hours. Post-dialysis, samples from both sides were collected, balanced to 100 μL with corresponding blank fluids, treated with stop solution, vortexed, and centrifuged to prepare for LC-MS/MS analysis.
(§5) Data analysis involved calculating the percentages of Unbound, Bound, and Recovery of the compounds post-dialysis. % Unbound was calculated as the ratio of the compound's peak area on the receiver side to its internal standard, reflecting the fraction that crossed the membrane. % Bound was the complement of % Unbound, representing the fraction retained on the donor side. % Recovery was determined from the peak area ratios on both sides of the membrane, assessing the dialysis efficiency in retaining the compound. These metrics provided insights into the compound's free, bound, and recoverable quantities, elucidating its behavior in the dialysis system.

[2] = system: plasma proteins; experiment: in vitro; conditions: male, C57BL/6J, mouse, pH 7.4
Procedure: as §1, §2, §3, §4, §5

[3] = system: brain proteins; experiment: in vitro; conditions: for % Undiluted Unbound (n = 3): brain homogenate, 4 h, 2 μM
Procedure: The initial preparation of the dialysis membrane involved thawing brain homogenate in a water bath at room temperature and subsequently heating it at 37° C. for 10 minutes. The dialysis setup utilized was from HT Dialysis LLC, featuring a HT-Dialysis plate (Model HTD 96 b) and a dialysis membrane with a molecular weight cutoff of 12-14 kDa.
The membrane underwent a comprehensive pretreatment which included hydration in ultra-pure water at room temperature for approximately one hour. This was followed by separation and immersion in a 20:80 ethanol:water solution for about 20 minutes. After this treatment, the membranes were either used immediately or stored at 2-8° C. for up to one month, with a final rinse in ultra-pure water prior to experimental use.
For compound preparation, test and control substances were first dissolved to create 400 μM working solutions by mixing 4 μL of stock solution with 96 μL of DMSO. These working solutions were then further diluted to 2 μM in a blank matrix by combining 3 μL of the prepared solution with 597 μL of matrix, ensuring thorough mixing.
During the assay, 50 μL aliquots of the 2 μM compound-matrix mixture were dispensed in triplicate into a Sample Collection Plate. Each aliquot was paired with an equal volume of blank PBS to standardize the total volume to 100 μL per well at a 1:1 matrix to PBS ratio. A stop solution comprising 500 μL of acetonitrile with tolbutamide and labetalol at 250 nM each was added to stabilize the samples at TO. The samples were then shaken at 800 rpm for 10 minutes and stored at 2-8° C.
The dialysis procedure included assembling the dialysis device according to the manufacturer's specifications, loading the matrix aliquots into the donor side of the dialysis wells, and conducting the dialysis under a humidified atmosphere with 5% CO2 at 37° C. for 4 hours.
Post-dialysis, 50 μL samples were collected from both the receiver and donor sides into new 96-well plates. Volumes were adjusted to 100 μL by adding an equivalent amount of the opposite blank matrix or PBS. The samples were prepared for LC-MS/MS analysis after thorough vertexing and centrifugation. Blank control samples were prepared and processed similarly to mirror the test conditions.
Data analysis involved calculating the percentages of undiluted unbound and bound fractions, and recovery of the compounds.

[4] = in vivo; conditions: male, C57BL/6J, mouse, po, 5 mg/kg
Procedure: Male C57BL/6J mouse was use in the in vivo distribution assay. The sample of brain, spinal cord and serum were collected for the drug distribution calculation.
Before commencing the study, the mice were acclimated to the test facility for at least 3 days. During this period, their general health was assessed by veterinary staff or other authorized personnel. The mice were housed in groups of up to four per cage in polysulfone cages, using either certified aspen shaving bedding or corncob bedding. This bedding was regularly tested for environmental contaminants by the manufacturer. The facility's environment was carefully controlled to maintain a temperature range of 20-26° C., relative humidity between 40 to 70%, and a 12-hour light/12-hour dark cycle, although this cycle can be interrupted for study-related activities. Temperature and humidity were continuously monitored by the Vawasala ViewLinc Monitoring system.
For dosing, an appropriate amount of the compounds was accurately weighed and mixed with a suitable volume of vehicle to achieve a clear solution. This process may require vertexing or sonication in a water bath. The animals were dosed within four hours of formulation preparation. Samples from each formulation were then collected for dose validation using either LC/UV or LC-MS/MS analysis.
Oral gavage was employed for dosing following the facility's SOPs, with the dose volume based on the animal's body weight measured on the morning of the dosing day.
Blood collections were performed from the saphenous vein or another suitable site, with approximately 0.1 mL collected per time point into pre-chilled commercial EDTA-K2 tubes. The samples were kept on wet ice until centrifugation at 4° C. and 3,200 g for 10 minutes. The plasma was then transferred into pre-labeled 96-well plates or polypropylene tubes, quick-frozen over dry ice, and stored at −60° C. or lower until LC-MS/MS analysis. […]
We calculated AUC ratio from the equation AUC ratio=Tissue AUC0-last/plasma AUC0-last. […]

[5] = system: MC38 tumor
Procedure: The cells in exponential growth phase were harvested and quantitated by cell counter before tumor inoculation. […] The date of randomization was denoted as day 0.
After tumor cells inoculation, the animals were checked daily for morbidity and mortality. […] Mortality and observed clinical signs were recorded for individual animals in detail. […] Dosing as well as tumor and body weight measurements were conducted in a Laminar Flow Cabinet. The body weights and tumor volumes were measured by using StudyDirector™ software (version 3.1.399.19).

[6] = mouse, in vivo, po, 1 mg/kg
Procedure: Initially, mice were acclimatized to the testing environment for 8 hours the day before the experiment, followed by at least 2 hours of habituation on the day of the test. The mice were then grouped randomly based on their body weight into six per group, ensuring a balanced distribution for the administration of the drug, which was dissolved in 20% HP-β-CD in water.
The locomotor activity was monitored by placing the mice in the center of a test box, with a video tracking system measuring the distance traveled every 5 minutes for 60 minutes. The testing began at T=0 minutes, immediately after administering the vehicle or compounds, and concluded at T=60 minutes. For data analysis, Prism 8.3.0 software was utilized, employing Two-way ANOVA followed by Bonferroni's multiple comparison test to analyze distance variations across different time points and One-way ANOVA followed by Dunnett's multiple comparisons test for assessing the total distance covered by the groups. A significance level of p<0.05 was established for determining significant differences.

[7] = molecular target: P-glycoprotein (P-gp) (Homo sapiens, UniProt P08183); experiment: in vitro; conditions: MDCK-MDR1
Sequence of P-glycoprotein (P-gp) (P08183 whole entry): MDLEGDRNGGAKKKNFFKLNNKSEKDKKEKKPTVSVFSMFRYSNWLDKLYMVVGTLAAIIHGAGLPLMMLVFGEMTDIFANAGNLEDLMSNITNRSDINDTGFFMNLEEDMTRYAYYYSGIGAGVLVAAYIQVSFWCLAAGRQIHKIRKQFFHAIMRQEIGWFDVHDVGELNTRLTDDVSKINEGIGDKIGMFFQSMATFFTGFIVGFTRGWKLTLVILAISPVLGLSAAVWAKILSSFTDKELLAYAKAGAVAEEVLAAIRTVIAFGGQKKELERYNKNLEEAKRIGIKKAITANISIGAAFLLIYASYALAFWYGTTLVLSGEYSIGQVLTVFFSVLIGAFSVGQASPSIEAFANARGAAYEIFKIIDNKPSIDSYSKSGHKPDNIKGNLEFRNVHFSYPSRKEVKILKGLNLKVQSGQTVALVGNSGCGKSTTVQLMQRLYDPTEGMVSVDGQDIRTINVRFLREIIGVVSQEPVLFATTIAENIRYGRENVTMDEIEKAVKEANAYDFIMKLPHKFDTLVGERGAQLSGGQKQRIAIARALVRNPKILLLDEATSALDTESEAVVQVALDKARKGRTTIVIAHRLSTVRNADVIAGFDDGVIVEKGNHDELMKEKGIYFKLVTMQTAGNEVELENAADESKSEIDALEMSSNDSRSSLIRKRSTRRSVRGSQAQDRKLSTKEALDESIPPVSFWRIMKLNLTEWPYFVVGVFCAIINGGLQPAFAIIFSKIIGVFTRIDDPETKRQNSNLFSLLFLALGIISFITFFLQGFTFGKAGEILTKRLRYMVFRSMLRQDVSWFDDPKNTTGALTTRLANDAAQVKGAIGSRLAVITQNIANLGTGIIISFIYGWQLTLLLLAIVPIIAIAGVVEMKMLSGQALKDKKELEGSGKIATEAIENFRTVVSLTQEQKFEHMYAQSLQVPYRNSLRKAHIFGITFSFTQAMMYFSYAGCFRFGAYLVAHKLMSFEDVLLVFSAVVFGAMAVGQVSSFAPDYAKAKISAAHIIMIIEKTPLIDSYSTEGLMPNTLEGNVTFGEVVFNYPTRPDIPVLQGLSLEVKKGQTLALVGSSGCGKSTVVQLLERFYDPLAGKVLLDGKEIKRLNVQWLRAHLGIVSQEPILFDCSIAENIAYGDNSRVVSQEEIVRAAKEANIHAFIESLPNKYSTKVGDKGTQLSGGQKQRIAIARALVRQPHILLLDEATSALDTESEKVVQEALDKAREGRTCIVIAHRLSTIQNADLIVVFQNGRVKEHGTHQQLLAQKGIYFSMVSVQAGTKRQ
Procedure: MDR1-MDCK II cells (obtained from Piet Borst at the Netherlands Cancer Institute) were seeded onto Polycarbonate membranes (PC) in 96-well insert systems at 3.33×10^5 cells/mL until to 4-7 days for confluent cell monolayer formation.
Selected α2AR agonist from table 3s were diluted with the transport buffer (HBSS with 10.0 mM Hepes, pH7.4) from DMSO stock solution to a concentration of 2 μM (DMSO<1%) and applied to the apical or basolateral side of the cell monolayer. […] Permeation of the test compounds from A to B direction and/or B to A direction was determined in duplicate. Digoxin was tested at 10.0 μM from A to B direction and B to A direction in duplicate. The plate was incubated for 2.5 hours in CO2 incubator at 37.0±1.0° C., with 5.0% CO2 at saturated humidity without shaking. In addition, the efflux ratio of each compound was also determined. Test and reference compounds were quantified by LC/MS/MS analysis based on the peak area ratio of analyte/IS.
After transport assay, lucifer yellow rejection assay was applied to determine the cell monolayer integrity. Buffers were removed from both apical and basolateral chambers, followed by the addition of 75 μL of 100 μM lucifer yellow in transport buffer and 250 μL transport buffer in apical and basolateral chambers, respectively. The plate was incubated for 30 minutes at 37.0° C. with 5.0% CO2 and 95.0% relative humidity without shaking. After 30 minutes incubation, 20 μL of lucifer yellow samples were taken from the apical sides, followed by the addition of 60 μL of transport Buffer. And then 80 μL of lucifer yellow samples were taken from the basolateral sides. The relative fluorescence unit (RFU) of lucifer yellow was measured at 425/528 nm (excitation/emission) with an Envision plate reader.
The apparent permeability coefficient Papp (cm/s) was calculated using the equation: […]
wherein dCr/dt is the cumulative concentration of compound in the receiver chamber as a function of time (μM/s); Vr is the solution volume in the receiver chamber (0.075 mL on the apical side, 0.25 mL on the basolateral side); A is the surface area for the transport, i.e. 0.143 cm2 for the area of the monolayer; and C0 is the initial concentration in the donor chamber (μM).
The efflux ratio was calculated using the equation: […]

[8] = D17, G2: 5 mg/kg p.o. QD Day 0~Day 3, then 2 mg/kg QD Day 4~Day 17

| SMILES | fraction unbound at 4 h, 2 μM [1] | recovery at 4 h, 2 μM [2] | recovery at 4 h, 2 μM [3] | % Undiluted Unbound (n = 3) [3] | Kp [4] | Kp uu [4] | T/C (%) [5, 8] | TGI (%) [5, 8] | Tumor volume (mm^3) (mean ± SEM) [5, 8] | state of mice at high dose ([5]; G2 group, 5 mg/mL, Day 0-3, p.o.) | sedation (total distance travelled 0-60 min) [6] | Efflux ratio [7] |
| --- | --- | --- | --- | --- | --- | --- | --- | --- | --- | --- | --- | --- |
| Clc1cccc(Cl)c1N=C1NCCN1 [Clonidine HCl, clonidine HCl] | 0.708 | 93.2% | 105% | 23.0% | 2.27 | 0.739 |  |  |  |  |  |  |
| Clc1cccc(Cl)c1N=C1NCCN1 [Clonidine, clonidine] |  |  |  |  |  |  | 27.38% | 72.62% | 766.52 ± 147.17 mm^3 | poor state of mice | significant sedation |  |
| Cc1cccc([C@H](C)c2cnc[nH]2)c1C [Dexmedetomidine HCl, dexmedetomidine HCl] | 0.068 | 88.9% | 93.8% | 6.3% | 1.26 |  |  |  |  |  |  |  |
| Oc1ccc2c(c1)C(Cc1c[nH]cn1)CC2 (centres unmarked) [Fadolmidine, reference compound] |  |  |  |  |  |  |  |  |  |  |  | 0.80 |
